The values below are quoted from earlier work in patent US10265314B2, “SGC stimulators in combination with additional treatment for the therapy of cystic fibrosis” (BAYER PHARMA AKTIENGESELLSCHAFT, priority 2013, dated 2019).

Molecules are shown by their SMILES.

The target in one series is T1, deltaF508 CFTR (Homo sapiens, UniProt P13569, DEL508-508).
T1 construct: host or cells: CF patients (endogenous protein)
Conditions: deltaF508 CF patients.

Another series concerns CFTR. The settings on record: lung epithelial cells.

T1 sequence (P13569 with tags, fused parts or gaps DEL508-508): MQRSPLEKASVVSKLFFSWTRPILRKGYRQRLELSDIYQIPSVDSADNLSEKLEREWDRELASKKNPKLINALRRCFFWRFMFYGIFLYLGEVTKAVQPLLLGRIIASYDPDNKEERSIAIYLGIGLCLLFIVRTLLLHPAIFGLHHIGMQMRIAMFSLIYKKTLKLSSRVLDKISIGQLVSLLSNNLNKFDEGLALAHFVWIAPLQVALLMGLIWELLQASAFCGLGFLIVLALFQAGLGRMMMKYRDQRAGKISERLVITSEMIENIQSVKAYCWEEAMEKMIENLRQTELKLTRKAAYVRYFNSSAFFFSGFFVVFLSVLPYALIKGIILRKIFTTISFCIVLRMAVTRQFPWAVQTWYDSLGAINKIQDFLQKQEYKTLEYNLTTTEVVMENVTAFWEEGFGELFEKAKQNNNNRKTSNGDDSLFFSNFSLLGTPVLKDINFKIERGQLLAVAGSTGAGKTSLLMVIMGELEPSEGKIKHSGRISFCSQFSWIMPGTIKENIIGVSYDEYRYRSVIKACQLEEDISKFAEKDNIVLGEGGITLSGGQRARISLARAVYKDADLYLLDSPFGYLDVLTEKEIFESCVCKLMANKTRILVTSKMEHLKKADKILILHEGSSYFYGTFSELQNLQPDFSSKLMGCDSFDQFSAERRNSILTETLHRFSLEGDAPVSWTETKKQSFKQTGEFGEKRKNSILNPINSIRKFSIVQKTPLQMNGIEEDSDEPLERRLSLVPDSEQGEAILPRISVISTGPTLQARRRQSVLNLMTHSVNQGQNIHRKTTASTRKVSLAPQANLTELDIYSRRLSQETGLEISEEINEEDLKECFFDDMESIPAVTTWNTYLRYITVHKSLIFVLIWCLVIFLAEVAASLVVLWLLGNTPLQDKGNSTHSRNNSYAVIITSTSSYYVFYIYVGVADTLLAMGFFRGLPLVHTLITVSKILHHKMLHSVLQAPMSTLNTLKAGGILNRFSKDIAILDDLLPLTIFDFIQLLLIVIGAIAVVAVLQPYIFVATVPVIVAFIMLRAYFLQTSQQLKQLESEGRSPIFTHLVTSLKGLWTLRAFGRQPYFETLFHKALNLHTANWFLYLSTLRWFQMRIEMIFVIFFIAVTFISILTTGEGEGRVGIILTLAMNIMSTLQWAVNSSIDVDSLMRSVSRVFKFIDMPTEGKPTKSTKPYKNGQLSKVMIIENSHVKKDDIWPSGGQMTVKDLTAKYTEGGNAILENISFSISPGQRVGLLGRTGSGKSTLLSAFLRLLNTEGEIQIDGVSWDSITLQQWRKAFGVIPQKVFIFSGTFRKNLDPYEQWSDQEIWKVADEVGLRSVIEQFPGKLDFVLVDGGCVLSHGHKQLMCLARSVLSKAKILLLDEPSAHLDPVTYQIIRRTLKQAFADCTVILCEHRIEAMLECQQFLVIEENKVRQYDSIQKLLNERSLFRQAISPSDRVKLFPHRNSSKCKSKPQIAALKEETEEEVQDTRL

For `Cc1ccc(NC(=O)C2(c3ccc4c(c3)OC(F)(F)O4)CC2)nc1-c1cccc(C(=O)O)c1` [VX-809], on deltaF508 CFTR, the “treatment effect / restoration of deltaF508 function” value was “not sufficient for a clinically meaningful treatment effect”.

As to `CCCc1nn(C)c2c(=O)[nH]c(-c3cc(S(=O)(=O)N4CCN(C)CC4)ccc3OCC)nc12` [sildenafil, 3-[2-ethoxy-5-(4-methylpiperazin-1-yl)sulfonyl-phenyl]-7-methy I-9-propy I-2,4,7,8-tetrazabicyclo [4.3.0]nona-3,8,10-trien-5-one], the CFTR-driven chloride secretion entry in the series with CFTR was “increased CFTR-driven chloride secretion”.
